From ChEMBL document CHEMBL1139474, “Cellular apoptosis and cytotoxicity of phenolic compounds: a quantitative structure-activity relationship study” (J Med Chem, 2005)

Key:
[1] = system: L1210; test: Cytotoxicity against mouse L1210 cells; conditions: mouse, l1210
[2] = system: L1210; test: Activity against caspase-mediated apoptosis in mouse L1210 cells; format: functional
[3] = system: L1210; test: Activity against caspase-mediated apoptosis in mouse L1210 cells at 0.1 mM; format: functional

SMILES	log(1/ID50) [1]	log(1/ID50) [2]	Activity [3]
Cc1cc([N+](=O)[O-])ccc1O	3.49		
CC(C)(C)c1ccccc1O	4	2.42	<15%
Cc1cc(C)c(O)c(C)c1	3.2		
CCCCCCCc1ccc(O)cc1	4.49		<15%
CCCCc1ccc(O)cc1	4.33		<15%
CCCCCc1ccc(O)cc1	4.47		<15%
Cc1ccc(O)c(O)c1	5.03		
CC(C)(C)c1ccc(O)cc1			<15%
Oc1cccc(Br)c1	3.82	1	<15%
Oc1ccccc1Br	3.44		<15%
N#Cc1ccccc1O	3.3		<15%
COc1cc(C)cc(OC)c1O	2.89	2.4	
Oc1ccccc1C(F)(F)F	3.22		<15%
Cc1cc(Br)ccc1O	3.46		
COc1ccc(O)c(C)c1	3.39		
Oc1ccccc1F	3.2		<15%
CC(=O)Oc1cc(C(C)(C)C)c(O)c(C(C)(C)C)c1	4.35	2.8	
CCc1ccc(O)c(C(C)(C)C)c1	3.8		
CCCCOc1ccc(O)cc1	5.2	0.14	<15%
Cc1ccc(O)c(N)c1		2.09	
COc1cc(N)cc(OC)c1O	5.52	3.1	
Cc1cc(F)ccc1O	3.09		

SMILES	log(1/ID50) [1]	log(1/ID50) [2]	Activity [3]
CC(C)(C)c1cc([N+](=O)[O-])cc(C(C)(C)C)c1O	4.9	2.49	
CC(C)(C)c1cccc(O)c1	3.88		<15%
COc1cc(/C=C/C=O)cc(OC)c1O	4.25	2.6	
CC(C)(C)c1ccc(O)cc1.Cl			<15%
CC(C)(C)c1cc(C#N)cc(C(C)(C)C)c1O	4.68	2.88	
CC(C)(C)c1cc(CO)cc(C(C)(C)C)c1O	3.88	2.39	
CN(C)c1cccc(O)c1	4.11		<15%
COc1cc(OC)c(O)c(OC)c1		2.2	
CSc1ccccc1O	3.7		<15%
NC(=O)Nc1ccccc1O	3.5		<15%
Oc1ccccc1I	3.95	2.38	<15%
CCCc1ccccc1O	3.49	2.16	<15%
CCc1cc(C(C)(C)C)c(O)c(C(C)(C)C)c1	3.91	2.43	
CC(C)(C)c1cc(C=O)cc(C(C)(C)C)c1O	4.06	2.49	
CC(=O)c1cc(C(C)(C)C)c(O)c(C(C)(C)C)c1	3.94	2.41	
CC(C)(C)c1cccc(C(C)(C)C)c1O	3.85	1.9	
Cc1ccc(O)c(C(C)(C)C)c1	3.8		
N#Cc1cccc(O)c1	3.11	1.11	<15%
Cc1cccc(C(C)(C)C)c1O	3.73		
CC(C)(C)c1ccc(O)c(C(C)(C)C)c1	4.24		
Cc1ccc(O)c(C)c1	3.04		
CCc1cccc(CC)c1O	3.26		

SMILES	log(1/ID50) [1]	log(1/ID50) [2]	Activity [3]
CC(C)c1ccccc1O	3.5	2.38	<15%
Cc1cccc(C)c1O	3.02		
CCc1ccccc1O		2.11	<15%
CC(C)Cc1ccccc1O	3.9		<15%
CC(C)(C)c1cc(O)cc(C(C)(C)C)c1O	4.16	2.5	
CC(=O)c1ccc(O)c(C)c1	3.14		
CC(C)(C)c1cc(C(C)(C)C)c(O)c(C(C)(C)C)c1	5.05	2.1	
COc1cc(NC(C)=O)cc(OC)c1O	3.99	2.5	
COCc1cc(C(C)(C)C)c(O)c(C(C)(C)C)c1	3.93	2.9	
Oc1cccc(Cl)c1			<15%
Oc1ccc(F)cc1	3.83		<15%
Oc1ccc(Br)cc1			<15%
Oc1cccc(F)c1	3.46	0.82	<15%
CCc1cccc(O)c1	3.71		<15%
COc1cc(C(C)(C)C)c(O)c(C(C)(C)C)c1	3.71	2.87	
CCOc1ccccc1O [1-hydroxy-2-ethoxybenzene]	3.25		<15%
COc1cccc(O)c1 [1-hydroxy-3-methoxybenzene]	3.71	1.31	<15%
Nc1cc([N+](=O)[O-])ccc1O [2-AMINO-4-NITROPHENOL]		2.46	
Oc1ccccc1Cl [2-CHLOROPHENOL]	3.22		<15%
Cl.Nc1cccc(O)c1 [3-AMINOPHENOL HYDROCHLORIDE]	4.11		<15%
Nc1cccc(O)c1 [3-AMINOPHENOL]		1.25	<15%
O=[N+]([O-])c1cccc(O)c1 [3-NITRO-PHENOL]	3.48	0.79	<15%

SMILES	log(1/ID50) [1]	log(1/ID50) [2]	Activity [3]
N#Cc1ccc(O)cc1 [4-CYANOPHENOL]	3.44	0.1	<15%
CC(=O)c1ccc(O)cc1 [4-HYDROXYACETOPHENONE]		0.03	<15%
O=Cc1ccc(O)cc1 [4-HYDROXYBENZALDEHYDE]	3.08		<15%
CCCCCCCCCc1ccc(O)cc1 [4-NONYLPHENOL]	4.75		<15%
CC(=O)Nc1ccc(O)cc1 [ACETAMINOPHEN]	3.73		<15%
COc1cc(C(C)=O)cc(OC)c1O [ACETOSYRINGONE]	3.06	2.8	
Oc1ccccc1O [CATECHOL]	3.75		<15%
COc1ccccc1O.Cl [GUAIACOL HYDROCHLORIDE]	3.78		<15%
COc1ccccc1O [GUAIACOL]		2.41	<15%
Oc1ccc(O)cc1 [HYDROQUINONE]	4.59		<15%
CC(=O)Nc1cccc(O)c1 [METACETAMOL]	2.65	1.1	<15%
Cc1cccc(O)c1 [METACRESOL]	3.54	0.45	<15%
O=[N+]([O-])c1ccccc1O [NITROPHENOLATE]	3.34		<15%
Cc1ccccc1O [ORTHOCRESOL]	3.52	1.87	<15%
CC(C)c1cccc(C(C)C)c1O [PROPOFOL]	3.25		
Nc1ccccc1O [QUESTIOMYCIN B]	5.16	2.29	<15%
OCc1ccccc1O [SALICYL ALCOHOL]	2.7		<15%
COc1cc(C=O)cc(OC)c1O [SYRINGALDEHYDE]	3.1	2.9	
COc1cccc(OC)c1O [SYRINGOL]	3.86	2.7	
